Six compounds from patent US20260167622A1, “PAN-KRAS DEGRADING AGENT, AND PREPARATION METHOD THEREFOR AND USE THEREOF” (LEADINGTAC PHARMACEUTICAL (SHAOXING) CO., LTD., priority 2022, published 2026) can be followed below.

Format in all cases: cell-based
The test system of assay [1] is KRAS G12D mutant human lung cancer cell A427. The assay can be described thus: 3D cell proliferation inhibition assay, A427. The following applies: A-427, 168 h, 3D culture, 7 days, CTG. Put shortly:
(§1)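 Cells seeded in low-adsorption plates at 5×10^2 cells/well (MKN1 1×10^3) with compounds at final 10000–0.026 nM, 0.2% DMSO, 3D culture 7 days at 37 °C. Viability by CellTiter-Glo luminescence; inhibition normalised to DMSO and medium-only controls, IC50 from nonlinear log-concentration fit.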

The subject of assay [2] is KRAS G12D mutant human gastric cancer cell AGS. In words: 3D cell proliferation inhibition assay, AGS. The following applies: 168 h, 3D culture, 7 days, CTG. The method, boiled down:
as §1

Assay [3] has as its system KRAS G12D mutant human metastatic pancreatic cancer cell AsPc-1. In words: 3D cell proliferation inhibition assay, AsPc-1. The following applies: ASPC1, 168 h, 3D culture, 7 days, CTG. Put shortly:
as §1

The test system of assay [4] is KRAS G12C mutant human non-small cell lung cancer cell NCI-H358. In words: 3D cell proliferation inhibition assay, NCI-H358. The following applies: NCI-H358, 168 h, 3D culture, 7 days, CTG. The method, boiled down: as §1
The subject of assay [5] is KRAS G12V mutant human lung squamous carcinoma cell SW900. In words: 3D cell proliferation inhibition assay, SW900. The following applies: SW900, 168 h, 3D culture, 7 days, CTG.
Assay [6] has as its system KRAS G12V mutant human colorectal cancer cell SW620. In words: 3D cell proliferation inhibition assay, SW620. The conditions noted are these: SW-620, 168 h, 3D culture, 7 days, CTG. Put shortly: as §1
The subject of assay [7] is KRAS G13D mutant human colorectal cancer epithelial cell DLD-1. In words: 3D cell proliferation inhibition assay, DLD-1. The following applies: DLD-1, 168 h, 3D culture, 7 days, CTG. The method, boiled down:
as §1

The test system of assay [8] is KRAS WT human gastric cancer cell MKN1. In words: 3D cell proliferation inhibition assay, MKN1. The conditions noted are these: MKN-1, 168 h, 3D culture, 7 days, CTG. The method, boiled down: as §1

A word on the IC50: it is the concentration that inhibits the measured activity by half. The low end stands for higher potency, the high end for lower potency. `C#Cc1c(F)ccc2cc(O)cc(-c3ncc4c(N5CCC[C@@](C)(O)C5)nc(OCC5(CN6CCN(CC7CCC8(CC7)CCN(C(=O)c7ccc(Cl)c(N9CCC(=O)NC9=O)c7)CC8)CC6)CC5)nc4c3F)c12` [Example 1, (R)-1-(2-chloro-5-(9-((4-((1-(((7-(8-ethynyl-7-fluoro-3-hydroxynaphthalen-1-yl)-8-fluoro-4-(3-hydroxy-3-methylpiperidin-1-yl)pyrido[4,3-d]pyrimidin-2-yl)oxy)methyl)cyclopropyl)methyl)piperazin-1-yl)methyl)-3-azaspiro[5.5]undecane-3-carbonyl)phenyl)dihydropyrimidine-2,4(1H,3H)-dione]: the half-maximal inhibitory concentration (IC50) is at most 50 nM in assay [1]; at most 50 nM in assay [2]; at most 50 nM in assay [3]; at most 50 nM in assay [4]; at most 50 nM in assay [5]; 1.41 nM in assay [6]. Also, the half-maximal inhibitory concentration (IC50) in assay [7] and in assay [8] was at most 50 nM throughout.

As to `CCc1c(F)ccc2cc(O)cc(-c3ncc4c(N5CCC[C@@](C)(O)C5)nc(OCC5(CN6CCN(CC7CCC8(CC7)CCN(C(=O)c7ccc(Cl)c(N9CCC(=O)NC9=O)c7)CC8)CC6)CC5)nc4c3F)c12` [Example 2, (R)-1-(2-chloro-5-(9-((4-((1-(((7-(8-ethyl-7-fluoro-3-hydroxynaphthalen-1-yl)-8-fluoro-4-(3-hydroxy-3-methylpiperidin-1-yl)pyrido[4,3-d]pyrimidin-2-yl)oxy)methyl)cyclopropyl)methyl)piperazin-1-yl)methyl)-3-azaspiro[5.5]undecane-3-carbonyl)phenyl)dihydropyrimidine-2,4(1H,3H)-dione], the IC50 in assay [1] was at most 50 nM; in assay [2] it was at most 50 nM; in assay [3], at most 50 nM; in assay [4] it was at most 50 nM; in assay [5] it was at most 50 nM; in assay [6] it was 1.85 nM. Also, the IC50 in assay [7] and in assay [8] was at most 50 nM throughout.

Consider `CCc1cccc2cc(O)cc(-c3ncc4c(N5CCC[C@@](C)(O)C5)nc(OCC5(CN6CCN(CC7CCC8(CC7)CCN(C(=O)c7ccc(Cl)c(N9CCC(=O)NC9=O)c7)CC8)CC6)CC5)nc4c3F)c12` [Example 3, (R)-1-(2-chloro-5-(9-((4-((1-(((7-(8-ethyl-3-hydroxynaphthalen-1-yl)-8-fluoro-4-(3-hydroxy-3-methylpiperidin-1-yl)pyrido[4,3-d]pyrimidin-2-yl)oxy)methyl)cyclopropyl)methyl)piperazin-1-yl)methyl)-3-azaspiro[5.5]undecane-3-carbonyl)phenyl)dihydropyrimidine-2,4(1H,3H)-dione], for which the IC50 is at most 50 nM in assay [1]; at most 50 nM in assay [2]; at most 50 nM in assay [3]; at most 50 nM in assay [4]; 100 to 500 nM in assay [5]; 2.52 nM in assay [6]. In addition, the IC50 in assay [7] and in assay [8] was at most 50 nM each time.

As to `C#Cc1c(F)ccc2cc(O)cc(-c3ncc4c(N5CCC[C@@](C)(O)C5)nc(OCC5(CN6CCN(CC7CCC8(CC7)CCN(C(=O)c7ccc(C)c(N9CCC(=O)NC9=O)c7)CC8)CC6)CC5)nc4c3F)c12` [Example 6, (R)-1-(5-(9-((4-((1-(((7-(8-ethynyl-7-fluoro-3-hydroxynaphthalen-1-yl)-8-fluoro-4-(3-hydroxy-3-methylpiperidin-1-yl)pyrido[4,3-d]pyrimidin-2-yl)oxy)methyl)cyclopropyl)methyl)piperazin-1-yl)methyl)-3-azaspiro[5.5]undecane-3-carbonyl)-2-methylphenyl)dihydropyrimidine-2,4(1H,3H)-dione], the IC50 in assay [1] is at most 50 nM; in assay [2] it was at most 50 nM; in assay [3], at most 50 nM; in assay [4], at most 50 nM; in assay [5] it was at most 50 nM; in assay [6], 1.28 nM. Also, the IC50 in assay [7] and in assay [8] was at most 50 nM throughout.

As to `C#Cc1c(F)ccc2cc(O)cc(-c3ncc4c(N5CCC[C@@](C)(O)C5)nc(OCC5(CN6CCN(CC7CCC8(CC7)CCN(C(=O)c7ccc(OC)c(N9CCC(=O)NC9=O)c7)CC8)CC6)CC5)nc4c3F)c12` [Example 7, (R)-1-(5-(9-((4-((1-(((7-(8-ethynyl-7-fluoro-3-hydroxynaphthalen-1-yl)-8-fluoro-4-(3-hydroxy-3-methylpiperidin-1-yl)pyrido[4,3-d]pyrimidin-2-yl)oxy)methyl)cyclopropyl)methyl)piperazin-1-yl)methyl)-3-azaspiro[5.5]undecane-3-carbonyl)-2-methoxyphenyl)dihydropyrimidine-2,4(1H,3H)-dione], the IC50 in assay [1] is at most 50 nM; in assay [2], at most 50 nM; in assay [3], at most 50 nM; in assay [4], at most 50 nM; in assay [5], at most 50 nM; in assay [6], 1.81 nM. For the same compound, the IC50 in assay [7] and in assay [8] was at most 50 nM each time.

For `C#Cc1cccc2cc(O)cc(-c3ncc4c(N5CCC[C@@](C)(O)C5)nc(OCC5(CN6CCN(CC7CCC8(CC7)CCN(C(=O)c7ccc(Cl)c(N9CCC(=O)NC9=O)c7)CC8)CC6)CC5)nc4c3F)c12` [Example 11, (R)-1-(2-chloro-5-(9-((4-((1-(((7-(8-ethynyl-3-hydroxynaphthalen-1-yl)-8-fluoro-4-(3-hydroxy-3-methylpiperidin-1-yl)pyrido[4,3-d]pyrimidin-2-yl)oxy)methyl)cyclopropyl)methyl)piperazin-1-yl)methyl)-3-azaspiro[5.5]undecane-3-carbonyl)phenyl)dihydropyrimidine-2,4(1H,3H)-dione], the IC50 was 50 to 100 nM in assay [1]; at most 50 nM in assay [2]; at most 50 nM in assay [3]; at most 50 nM in assay [4]; at most 50 nM in assay [5]; 5.43 nM in assay [6]. Further, the IC50 in assay [7] and in assay [8] was at most 50 nM in each case.
